In EP4599829A1, “USE OF IMIDAZOLIDINYL VANILLIC ACID ETHER DERIVATIVE IN TREATMENT OF DISEASE ACCOMPANIED BY FIBROSIS” (Hefei Institute of Pharmaceutical Industry Co., Ltd., priority 2022, dated 2024):
Marks after values point to notes of the source that are not given here.

How the values were obtained:
Assay type in all cases: in vivo, Female BALB/c mice
thromboxane B2 (TXB2) = test: Serum TXB2 level (ELISA) in BLM-induced systemic sclerosis mouse model; conditions: 0.10 mmol/kg once a day for 28 days; for TXB2: serum, oral (gavage) (Sodium Ozagrel: intravenous injection), mean ± SE, n = 8, blank 74.19±14.76, model 261.91±10.96
Excerpt: (§1) Female BALB/c mice, weighing 18-22 g, were purchased from Beijing Weitonglihua Experimental Animal Technology Co., Ltd. and housed in an SPF environment for 1 week (with free access to drinking water during the feeding period). They were then randomly divided into 9 groups, with 10 mice in each group, namely, blank group, model group, sodium ozagrel group, dipyridamole group, clopidogrel group, cilostazol group, ticagrelor group, aspirin group, and HY-2 group. The back of mice of each group was shaved in an area of 1 cm*1 cm. Except for the blank group which was subcutaneously injected with normal saline, all other groups were subcutaneously injected with BLM 100 µL (0.5 mg/mL) for 28 consecutive days (the injection area was injected at the four corners of the shaved area for the first 4 times, and the center of the shaved area for the 5th time, and this cycle was repeated. The skin changes at the subcutaneous injection site and the weight changes of the mice were observed every week). Each treatment group was respectively given sodium ozagrel, dipyridamole, clopidogrel, cilostazol, ticagrelor, aspirin, and HY-2 30 minutes after the injection of BLM, once a day for 28 consecutive days (the dosage and administration method are shown in Table 1). Table 1 Dosage and administration method
(§2) Mouse TXB2 ELISA kit was purchased from Shanghai Jianglai Biological, batch number: 20220715, antibody types: purified mouse TXB2 capture antibody and horseradish peroxidase (HRP)-labeled detection antibody; mouse TGF-β1 ELISA kit was purchased from Shanghai Jianglai Biological, batch number: 20220806, antibody types: purified mouse TGF-β1 capture antibody and horseradish peroxidase (HRP)-labeled detection antibody.
(§3) The kit uses a double-antibody one-step sandwich enzyme-linked immunosorbent assay (ELISA). Serum specimens, standards, and horseradish peroxidase (HRP)-labeled detection antibodies are added sequentially to the coated microwells pre-coated with mouse analyte capture antibodies, followed by incubation and thorough washing. The substrate TMB (3,3',5,5'-tetramethylbenzidine) is used for color development. TMB is converted to be blue under the catalysis of peroxidase (HRP) and then converted to be finally yellow under the action of acid. The depth of color is positively correlated with the content of the analyte in the serum sample. The absorbance (OD value) was measured at a wavelength of 450 nm using a microplate reader to calculate the sample concentration.
(§4) After the last administration, the animals were sacrificed and serum samples were collected. Standard wells were set on the enzyme-labeled coated plate, standard solutions of different concentrations were prepared according to the instructions, and 50uL of standard solutions of different concentrations were added to each standard well. Blank wells and test sample wells were set on the enzyme-labeled coated plate, 40uL of sample diluent was first added to the test sample well, and 20uL of test serum sample was then added. 100uL of enzyme-labeled reagent was added to each well, except the blank well. The plate was sealed with a sealing film and incubated at 37°C for 60 minutes. The sealing film was removed, and after discarding the liquid and spinning dry, each well was filled with washing solution, and stood for 30 seconds, then discarding the washing solution, repeating 5 times and spinning dry. 50uL of color developer A (containing H2O2) was first added into each well, and then 50uL of color developer B (containing substrate TMB) was added, gently shaking to mix, and color developing at 37°C in the dark for 15 minutes. 50uL of stop solution was added to each well to stop the reaction (the blue color immediately turns to yellow). The microplate reader was adjusted to zero with the blank well, and the absorbance OD value of each well was measured in sequence at a wavelength of 450nm. The measurement should be carried out within 15 minutes after adding the stop solution.

[1] = tested on: BLM-Induced Systemic Sclerosis Mouse Model; test: Comparison with other antiplatelet drugs: skin thickening in BLM-induced systemic sclerosis mouse model; conditions: 0.10 mmol/kg once a day for 28 days; for Skin thickness: oral (gavage) (Sodium Ozagrel: intravenous injection), mean ± SE, n = 8, blank 0.22±0.05, model 0.87±0.15
Excerpt: as §1
After the last administration, the animals were sacrificed, and the back skin tissue was taken, fixed with 4% paraformaldehyde, dehydrated, paraffin-embedded and sliced. The tissue sections were stained with HE, and the pathological morphological changes of the skin tissue were examined with a microscope and the skin thickening was measured.
The experimental data were processed using GraphPad Prism 7, and the experimental groups were compared using the student t test.

[2] = tested on: transforming growth factor β1 (TGF-β1); test: Serum TGF-β1 level (ELISA) in BLM-induced systemic sclerosis mouse model; conditions: 0.10 mmol/kg once a day for 28 days; for TGF-β1: serum, oral (gavage) (Sodium Ozagrel: intravenous injection), mean ± SE, n = 8, blank 379.76±120.63, model 913.10±64.73
Excerpt: as §1, §2, §3, §4

[3] = tested on: BLM-Induced Systemic Sclerosis Mouse Model; test: Skin thickening (HE staining) in BLM-induced systemic sclerosis mouse model, dose groups; conditions: compared with the model group
Description: Female BALB/c mice, weighing 18-22 g, were purchased from Beijing Weitong Lihua Experimental Animal Technology Co., Ltd. and housed in an SPF environment for 1 week (with free access to drinking water during the feeding period). They were then randomly divided into 5 groups, 8 mice in each group, namely, blank group, model group, 15 mg/kg, 30 mg/kg, and 60 mg/kg dosage groups of sodium 4-(2-(1H-imidazol-1-yl)ethoxy)-3-methoxybenzoate (HY-2). The back of each group of mice was shaved in an area of 1 cm*1 cm. Except for the blank group which was subcutaneously injected with normal saline, all other groups were injected with BLM 100 µL (0.5 mg/mL) for 28 consecutive days (the injection area was the four corners of the shaved area for the first 4 injections, and the center of the shaved area for the 5th injection, and this cycle was repeated. The skin changes at the subcutaneous injection site and the weight changes of the mice were observed every week). After the injection of BLM, the treatment group was orally (gavaged) given the corresponding dose of sodium 4-(2-(1H-imidazole-1-yl)ethoxy)-3-methoxybenzoate, once a day, for 28 consecutive days.
After the last administration, the animals were sacrificed, and appropriate skin tissues were taken for HE staining and measurement of skin thickening.

[4] = tested on: BLM-Induced Systemic Sclerosis Mouse Model; test: Lung histopathology (HE staining) in BLM-induced systemic sclerosis mouse model; conditions: each dose group (15, 30, 60 mg/kg) oral (gavage) once a day for 28 days, compared with the model group
Description: (§5) Female BALB/c mice, weighing 18-22 g, were purchased from Beijing Weitonglihua Experimental Animal Technology Co., Ltd. and housed in an SPF environment for 1 week (with free access to water during the feeding period). They were then randomly divided into 5 groups, with 8 mice in each group, namely, blank group, model group, HY-2 15 mg/kg, 30 mg/kg, and 60 mg/kg dose groups. The back of each group of mice was shaved in an area of 1 cm*1 cm. Except for the blank group which was subcutaneously injected with normal saline, all other groups were injected with BLM 100 µL (0.5 mg/mL) for 28 consecutive days (the injection area was the four corners of the shaved area for the first 4 injections, and the center of the shaved area for the 5th injection, and this cycle was repeated. The skin changes at the subcutaneous injection site and the weight changes of the mice were observed every week). After the injection of BLM, each dose treatment group was orally (gavage) given the corresponding dose of HY-2 once a day for 28 consecutive days.
After the last administration, the animals were sacrificed, and appropriate lung tissues were taken for HE staining and slide preparation to examine the lung tissue structure and inflammatory cell infiltration.

[5] = tested on: BLM-Induced Systemic Sclerosis Mouse Model; test: Collagen deposition (Masson staining) in skin and lung tissues of BLM-induced systemic sclerosis mouse model; conditions: each dose group (15, 30, 60 mg/kg) oral (gavage) once a day for 28 days, compared with the model group, P<0.01
Description: as §5, with “administered” for “given”
After the last administration, the animals were sacrificed, and appropriate skin and lung tissues were taken for Masson staining and slide preparation to examine the collagen deposition in the skin and lung tissues. The percentage of collagen deposition was quantified using Image-Pro® Plus software.

Compound: CC(=O)Oc1ccccc1C(=O)O [Aspirin, aspirin]
- TXB2 (thromboxane B2 (TXB2)): 239.57 ± 13.60 pg/mL
- Skin thickness [1]: 0.80±0.09^aa mm
- TGF-β1 [2]: 827.68 ± 77.88 pg/mL

Compound: O=C1CCc2cc(OCCCCc3nnnn3C3CCCCC3)ccc2N1 [Cilostazol, cilostazol]
- TXB2 (thromboxane B2 (TXB2)): 259.32±7.13^a pg/mL
- Skin thickness [1]: 0.74±0.11^a mm
- TGF-β1 [2]: 838.27 ± 65.93 pg/mL

Compound: COC(=O)[C@H](c1ccccc1Cl)N1CCc2sccc2C1 [Clopidogrel, clopidogrel]
- TXB2 (thromboxane B2 (TXB2)): 208.46 ± 42.87 pg/mL
- Skin thickness [1]: 0.81±0.10^aa mm
- TGF-β1 [2]: 822.62 ± 76.60 pg/mL

Compound: OCCN(CCO)c1nc(N2CCCCC2)c2nc(N(CCO)CCO)nc(N3CCCCC3)c2n1 [Dipyridamole, dipyridamole]
- TXB2 (thromboxane B2 (TXB2)): 248.84 ± 38.88 pg/mL
- Skin thickness [1]: 0.74 ± 0.12^a mm
- TGF-β1 [2]: 867.56 ± 113.73 pg/mL

Compound: COc1cc(C(=O)[O-])ccc1OCCn1ccnc1.[Na+] [HY-2, sodium 4-(2-(1H-imidazol-1-yl)ethoxy)-3-methoxybenzoate]
- effect on TXB2 in serum (in words) (thromboxane B2 (TXB2); vs model group): significantly reduce
- TXB2 (thromboxane B2 (TXB2)): 215.00 ± 38.92 pg/mL
- skin thickening ([3]; 30 mg/kg oral (gavage) once a day for 28 days, P<0.05): significantly inhibited
- skin thickening ([3]; 60 mg/kg oral (gavage) once a day for 28 days, P<0.01): significantly inhibited
- lung tissue structure and inflammatory cell infiltration [4]: regular and infiltrated by less inflammatory cells
- Skin thickness [1]: 0.59±0.06 mm
- skin thickness compared with the model group (in words) ([1]; P<0.01): significantly decreased
- effect on TGF-β1 in serum (in words) ([2]; vs model group): significantly reduce
- TGF-β1 [2]: 783.04 ± 53.77 pg/mL
- collagen deposition in the lung tissue [5]: significantly reduced
- collagen deposition in the skin [5]: significantly reduced

Compound: O=C(O)/C=C/c1ccc(Cn2ccnc2)cc1 [Sodium Ozagrel, sodium ozagrel]
- TXB2 (thromboxane B2 (TXB2)): 196.54 ± 45.30 pg/mL
- Skin thickness [1]: 0.82±0.16^aa mm
- TGF-β1 [2]: 884.74±33.45^aa pg/mL

Compound: CCCSc1nc(N[C@@H]2C[C@H]2c2ccc(F)c(F)c2)c2nnn([C@@H]3C[C@H](OCCO)[C@@H](O)[C@H]3O)c2n1 [Ticagrelor, ticagrelor]
- TXB2 (thromboxane B2 (TXB2)): 197.76 ± 42.08 pg/mL
- Skin thickness [1]: 0.74±0.07^aa mm
- TGF-β1 [2]: 847.62±43.73^a pg/mL
